Key:
Type in all cases: in vivo, human
[1] = Serum electrolyte balance, open-label 24/48-week safety study (Example 1)
Method: (§1) Multi-center, open-label study was performed to evaluate the safety of 48 μg of Compound A (13,14-dihydro-15-keto-16,16-difluoro-PGE1) (24 μg of Compound A b.i.d) when administered daily for 24 weeks (6 months) or 48 weeks (12 months) to subjects with occasional constipation. […] After 14-day drug-free washout period, they received 48 μg of Compound A (24 μg of Compound A b.i.d) orally for 48 weeks.
Sodium, potassium, chloride, calcium, magnesium and phosphorus ion concentrations in serum of patients (n=299) were measured before, and at 6, 12, 18, 24, 30, 36, 48 and 50 weeks after the start of the Compound A treatment.
The laboratory standard values for the panel of electrolytes were taken from the normal reference ranges for the central laboratory.

[2] = tested on: subjects with occasional constipation; test: Severity of constipation, abdominal bloating and abdominal discomfort during 6 and 12 months treatment (Example 1); conditions: 48 μg/day, 6 months and 12 months treatment
Method: as §1
Each parameter (Severity of Constipation, Abdominal bloating or Abdominal discomfort) was evaluated on the scale of: 0 (absent), 1 (mild), 2 (moderate), 3 (severe) and 4 (very severe) in the patients during 6 months (n=246) or 12 months (n=304) treatments.

[3] = tested on: patients with chronic constipation; test: Randomized withdrawal study, post-treatment response after 4 weeks of active treatment (Example 2)
Method: Multi-center, double-blind, randomized, placebo-controlled study was performed to assess post-treatment response, in a portion of the total population, after four (4) weeks of active treatment (48 μg Compound A total daily dose) and three (3) weeks randomized withdrawal period. […] After 14-day drug-free washout period, they received orally 48 μg (total daily dose) of Compound A for 28 days followed by either 0 or 48 μg (total daily dose) of Compound A for 21 days.
In this study, the following parameters were evaluated. • 1) Bowel movements per week • 2) Abdominal bloating • 3) Abdominal discomfort • 4) Severity of Constipation • 5) Straining • 6) Consistency
Each parameter (Abdominal bloating, Abdominal discomfort, Severity of Constipation or Straining) was evaluated on the scale of: 0 (absent), 1 (mild), 2 (moderate), 3 (severe) and 4 (very severe) in the patients. Consistency was evaluated on a scale of: 0 (very loose), 1 (loose), 2 (normal), 3 (hard) and 4 (very hard, little balls)

[4] = tested on: male and female patients with occasional constipation; test: Weekly number of spontaneous bowel movements in male vs. female patients (Example 4); conditions: 48 μg/day, 4 weeks
Method: (§2) Multi-center, parallel-group, double-blind, placebo-controlled study was performed to compare the effect of Compound A on the weekly number of spontaneous bowel movements in male and female patients. Male and female patients with occasional constipation were received 48 μg (total daily dose) of Compound A (24 μg of Compound A b.i.d) for 4 weeks. The bowel movements in the patient were recorded during the treatment.

[5] = tested on: different aged patients with occasional constipation; test: Weekly number of spontaneous bowel movements by age (Example 5); conditions: 48 μg/day, 4 weeks; all aged groups, even 65 years and older
Method: as §2, with “on improving” for “on the”, “movements among different aged” for “movements in male and female patients. Male and female”, “occasional constipation. The patients” for “occasional constipation”

[6] = Week 50 after start of 48-week treatment
[7] = 48 μg/day for 28 days, then 3 weeks withdrawal

## CCCCC(F)(F)C(=O)CCC1C(O)CC(=O)C1CCCCCCC(=O)O (centres unmarked) [Compound A, 13,14-dihydro-15-keto-16,16-difluoro-PGE1]
[1]; 48 μg/day, long-term administration up to 48 weeks
  Effect on sodium, potassium, chloride, calcium, magnesium and phosphorus ion concentration in serum: no effect
[1]; Week 0 (before treatment)
  Mean serum Calcium: 9.61 mg/dL
  Mean serum Chloride: 103.08 mmol/L
  Mean serum Magnesium: 2.18 mg/dL
  Mean serum Phosphorus: 3.65 mg/dL
  Mean serum Potassium: 4.28 mmol/L
  Mean serum Sodium: 141.00 mmol/L
[1]; Week 6, 48 μg/day oral
  Mean serum Calcium: 9.90 mg/dL
  Mean serum Chloride: 103.00 mmol/L
  Mean serum Magnesium: 2.23 mg/dL
  Mean serum Phosphorus: 3.20 mg/dL
  Mean serum Potassium: 4.28 mmol/L
  Mean serum Sodium: 142.25 mmol/L
[1]; Week 12, 48 μg/day oral
  Mean serum Calcium: 9.71 mg/dL
  Mean serum Chloride: 103.08 mmol/L
  Mean serum Magnesium: 2.24 mg/dL
  Mean serum Phosphorus: 3.57 mg/dL
  Mean serum Potassium: 4.20 mmol/L
  Mean serum Sodium: 139.78 mmol/L
[1]; Week 18, 48 μg/day oral
  Mean serum Calcium: 9.30 mg/dL
  Mean serum Chloride: 105.50 mmol/L
  Mean serum Magnesium: 2.35 mg/dL
  Mean serum Phosphorus: 3.55 mg/dL
  Mean serum Potassium: 4.40 mmol/L
  Mean serum Sodium: 141.50 mmol/L
[1]; Week 24, 48 μg/day oral
  Mean serum Calcium: 9.77 mg/dL
  Mean serum Chloride: 102.56 mmol/L
  Mean serum Magnesium: 2.21 mg/dL
  Mean serum Phosphorus: 3.61 mg/dL
  Mean serum Potassium: 4.19 mmol/L
  Mean serum Sodium: 139.21 mmol/L
[1]; Week 30, 48 μg/day oral
  Mean serum Calcium: 9.10 mg/dL
  Mean serum Chloride: 100.00 mmol/L
  Mean serum Magnesium: 2.30 mg/dL
  Mean serum Phosphorus: 2.50 mg/dL
  Mean serum Potassium: 4.30 mmol/L
  Mean serum Sodium: 136.00 mmol/L
[1]; Week 36, 48 μg/day oral
  Mean serum Calcium: 9.67 mg/dL
  Mean serum Chloride: 102.51 mmol/L
  Mean serum Magnesium: 2.19 mg/dL
  Mean serum Phosphorus: 3.58 mg/dL
  Mean serum Potassium: 4.18 mmol/L
  Mean serum Sodium: 138.94 mmol/L
[1]; Week 48, 48 μg/day oral
  Mean serum Calcium: 9.66 mg/dL
  Mean serum Chloride: 102.88 mmol/L
  Mean serum Magnesium: 2.14 mg/dL
  Mean serum Phosphorus: 3.50 mg/dL
  Mean serum Potassium: 4.20 mmol/L
  Mean serum Sodium: 139.59 mmol/L
[1]; [6]
  Mean serum Calcium: 9.47 mg/dL
  Mean serum Chloride: 102.67 mmol/L
  Mean serum Magnesium: 2.31 mg/dL
  Mean serum Phosphorus: 3.54 mg/dL
  Mean serum Potassium: 4.49 mmol/L
  Mean serum Sodium: 139.11 mmol/L
[2]
  Efficacy on severity of constipation, abdominal bloating and abdominal discomfort (FIGS. 1 to 6): effective
[3]; 48 μg/day
  Quality of life of the patients: improved
[3]; [7]
  Efficacy after stopping the treatment (FIGS. 7 to 12): sustained
  Rebound effect after discontinuation of treatment (FIGS. 7 to 12): substantially no rebound effect
[4]
  Difference between the effects in male and female patients: no significant difference
[4]; both male and female patients
  Effect on weekly number of spontaneous bowel movements (FIG. 13): significantly effective
[5]
  Effect on weekly number of spontaneous bowel movements by age (FIG. 14): significantly effective

— patent US8748481B2, “Method for treating gastrointestinal disorder” (Sucampo AG, priority 2004, dated 2014)
